According to paper PMC5225183, “Fingerprinting of neurotoxic compounds using a mouse embryonic stem cell dual luminescence reporter assay” (Archives of Toxicology, 2016):
Read-outs that look alike come from different tables or passages of the source. Marks after values point to notes of the source that are not given here.

B1: G-CSF: Hormone stimulating granulopoiesis; Peptide/Protein (protein, UniProt P09919 31-207, looked up)
Granulocyte …: TPLGPASSLPQSFLLKCLEQVRKIQGDGAALQEKLVSECATYKLCHPEELVLLGHSLGIPWAPLSSCPSQALQLAGCLSQLHSGLFLYQGLLQALEGISPELGPTLDTLQLDVADFATTIWQQMEELGMAPALQPTQGAMPAFASAFQRRAGGVLVASHLQSFLEVSYRVLRHLAQP

What was measured:
[1] = cited from earlier work; for Concentration in humans (increase in blood mercury levels after vaccination): ref Pichichero et al. ([2008])
CGR8-2Luc ESCs = tested on: CGR8-2Luc ESCs
How it was run: (§1)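 Mouse CGR8-2Luc ESCs in LIF-containing medium were exposed to compounds for 48 h; ESC-derived neurons (MS5 co-culture, replated day 5 in N2/bFGF medium) were exposed from day 6 to day 8. Read-outs: Tα1-FLuc, EF1α-RLuc and PI DNA content as % of control. LOAEL = lowest concentration giving a significant decrease versus baseline.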

ESC-derived neurons = tested on: ESC-derived neurons
How it was run: as §1

[2] = Table S1, three classes; ref per compound in the footnotes of Table S1; cited from earlier work
[3] = tested on: Tubulin α1 (Tα1) promoter; assay: cells
How it was run: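 Mouse CGR8 ESCs carrying Tα1-firefly and EF1α-Renilla luciferase reporters, treated either undifferentiated (48 h exposure after 24 h plating) or as MS5-induced neurons (exposure day 6 to day 8). Dual-luciferase luminescence expressed as % promoter activity versus DMSO control wells; 5 µM methylmercury as positive control.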

[4] = undifferentiated ESCs, 48 h exposure, PI assay (cytotoxicity)
[5] = ESC-derived neurons, 48 h exposure, PI assay (cytotoxicity)
[6] = ESC-derived neurons, 48 h exposure

Row | Molecule | Concentration in humans ([1]; ref Zimmer et al. ([2014])) | LOAEL ESC DNA (CGR8-2Luc ESCs; [4]) [µM] | LOAEL Neurons DNA (ESC-derived neurons; [5]) [µM] | class based on clinical evidence for neurotoxicity [2] | LOAEL Neurons Tα1 [3, 6] [µM] | also measured
1 | C[C@]12CC[C@H](O)CC1=CC[C@@H]1[C@@H]2CC[C@]2(C)C(c3cccnc3)=CC[C@@H]12 [Abiraterone] | 0.65^k µM | >2 | >2 | Possibly (developmental) | 1 | –
2 | O=C(/C=C/c1cccc(S(=O)(=O)Nc2ccccc2)c1)NO [Belinostat] | – | 0.5 | 50 | Possibly (developmental) | 0.0005 | Concentration in humans ([1]; ref Wei et al. ([2014])): 0.36^f µM
3 | Nc1ccccc1NC(=O)c1ccc(CNC(=O)OCc2cccnc2)cc1 [Entinostat] | – | 5 | 50 | – | 0.5 | –
4 | COc1cc2ncnc(Nc3ccc(F)c(Cl)c3)c2cc1OCCCN1CCOCC1 [Gefitinib] | 1.2^k µM | 50 | 50 | Possibly (developmental) | 50 | –
5 | COC1=C2C[C@@H](C)C[C@H](OC)[C@H](O)[C@@H](C)/C=C(\C)[C@H](OC(N)=O)[C@@H](OC)/C=C\C=C(/C)C(=O)NC(=CC1=O)C2=O [Geldanamycin] | 0.8^k µM | 0.05 | 0.05 | Possibly (developmental) | 0.05 | –
6 | [Br][Hg][Br] [Mercury bromide] | – | 5 | >10 | Possibly (developmental) | 10 | cytotoxicity on ESCs (CGR8-2Luc ESCs): highly cytotoxic
7 | COCC(=O)O [Methoxyacetic acid] | – | >50 | >50 | Possibly (developmental) | 50 | Concentration in humans (human exposure concentration) ([1]; ref Zimmer et al. ([2014])): 60^k (human exposure concentration) µM; inhibition at 50 µM ([3]; Mus musculus, Neuron, read-out: inhibition of neuronal promoter activity): ~40%
8 | [CH3][Hg][Cl] [Methylmercury] | – | 0.5 | 0.5 | Well-established (developmental) | 0.05 | Concentration in humans ([1]; ref Krug et al. ([2013b])): 0.005–0.5^e µM; Concentration in humans ([1]; ref Krug et al. ([2013b]), listed as methylmercury): 0.005 to 0.5 µM
9 | COC(=O)c1ccc2c(c1)NC(=O)/C2=C(\Nc1ccc(N(C)C(=O)CN2CCN(C)CC2)cc1)c1ccccc1 [Nintedanib] | 0.074^k µM | 5 | 5 | Possibly (developmental) | 0.05 | –
10 | COc1ccc2[nH]c([S+]([O-])Cc3ncc(C)c(OC)c3C)nc2c1 (stereo not shown) [Omeprazole] | – | >50 | >50 | Non-neurotoxic | >50 | Concentration in humans ([1]; ref Linden et al. ([2007])): 0.8^b µM
11 | Brc1ccc(Oc2cc(Br)c(Br)cc2Br)c(Br)c1 [PBDE-99] | – | >50 | 5 | Well-established (developmental) | >50 | Concentration in humans (human exposure concentration) ([1]; ref Zimmer et al. ([2014])): 97*10^−6k (human exposure concentration) µM; Human exposure concentrations ([1]; ref Zimmer et al. ([2014])): 5 to 100 pM; effect on cell number in neurons (ESC-derived neurons): moderate cell number decrease
12 | Cc1[nH]c2ccccc2c1CCNCc1ccc(/C=C/C(=O)NO)cc1 [Panobinostat] | – | 0.05 | 0.05 | Possibly (developmental) | 0.0005 | Concentration in humans ([1]; ref Bauer et al. ([2014])): 0.036–0.045^h µM; effect on neural promoter activity in neurons [3]: inhibited at subnanomolar concentrations
13 | CC(C)NCC(O)COc1cccc2ccccc12 (stereo not shown) [Propranolol] | – | >50 | 50 | Non-neurotoxic | 50 | Concentration in humans ([1]; ref International Programme on Chemical Safety): 0.12–0.19^d µM
14 | O=C(NC[C@H]1CN(c2ccc(N3CCOCC3=O)cc2)C(=O)O1)c1ccc(Cl)s1 [Rivaroxaban] | 0.69^k µM | >10 | >10 | Non-neurotoxic | >10 | –
15 | C/C(O)=C(\C#N)C(=O)Nc1ccc(C(F)(F)F)cc1 [Teriflunomide] | 10.8^k µM | >50 | >50 | – | 50 | effect on neural promoter activity in neurons [3]: increase
16 | C[CH2][Hg][S]c1ccccc1C(=O)[O-].[Na+] [Thimerosal] | – | – | – | Possibly (developmental) | – | increase in blood mercury levels after vaccination ([1]; conversion of <5 ng/ml, ref Pichichero et al. [2008]): ~25 nM; Concentration in humans (increase in blood mercury levels after vaccination) [1]: Max 5 ng/ml^j; Concentration in humans (increase in blood mercury levels after vaccination) ([1]; listed as thimerosal): < 5 ng/mL; LOAEL ESC DNA (CGR8-2Luc ESCs): 0.5 µM; LOAEL Neurons DNA (ESC-derived neurons): 0.5 µM; LOAEL Neurons Tα1 [3]: 0.5 µM
17 | O=c1[nH]c(=O)c2[nH]c(=O)[nH]c2[nH]1 [Uric acid] | – | >50 | >50 | Non-neurotoxic | >50 | –
18 | CCCC(CCC)C(=O)O [Valproic acid] | – | 5000 | 5000 | Well-established (developmental) | 50 | Concentration in humans ([1]; ref Krug et al. ([2013b])): 500–1000^e µM
19 | Erythropoietin: EpoR agonist controlling erythropoiesis and neurogenesis; Peptide/Protein | 0.0003^k µM | – | – | Non-neurotoxic | >0.238 | LOAEL ESC DNA (CGR8-2Luc ESCs): >0.238 µM; LOAEL Neurons DNA (ESC-derived neurons): >0.238 µM
20 | Oxytocin | 0.002^k µM | >0.1 | >0.1 | Non-neurotoxic | >0.1 | –
21 | B1 | 1.3*10^−6k µM | – | – | Non-neurotoxic | >0.00266 | LOAEL ESC DNA (CGR8-2Luc ESCs): >0.00266 µM; LOAEL Neurons DNA (ESC-derived neurons): >0.00266 µM
